From BindingDB's records for doi:10.1021/cb500828m (Vanderbilt University, 2015) come the findings set out here.

In this assay the target is T1, Phospholipase D1 (Homo sapiens, UniProt Q13393).
T1 sequence (Q13393 whole entry): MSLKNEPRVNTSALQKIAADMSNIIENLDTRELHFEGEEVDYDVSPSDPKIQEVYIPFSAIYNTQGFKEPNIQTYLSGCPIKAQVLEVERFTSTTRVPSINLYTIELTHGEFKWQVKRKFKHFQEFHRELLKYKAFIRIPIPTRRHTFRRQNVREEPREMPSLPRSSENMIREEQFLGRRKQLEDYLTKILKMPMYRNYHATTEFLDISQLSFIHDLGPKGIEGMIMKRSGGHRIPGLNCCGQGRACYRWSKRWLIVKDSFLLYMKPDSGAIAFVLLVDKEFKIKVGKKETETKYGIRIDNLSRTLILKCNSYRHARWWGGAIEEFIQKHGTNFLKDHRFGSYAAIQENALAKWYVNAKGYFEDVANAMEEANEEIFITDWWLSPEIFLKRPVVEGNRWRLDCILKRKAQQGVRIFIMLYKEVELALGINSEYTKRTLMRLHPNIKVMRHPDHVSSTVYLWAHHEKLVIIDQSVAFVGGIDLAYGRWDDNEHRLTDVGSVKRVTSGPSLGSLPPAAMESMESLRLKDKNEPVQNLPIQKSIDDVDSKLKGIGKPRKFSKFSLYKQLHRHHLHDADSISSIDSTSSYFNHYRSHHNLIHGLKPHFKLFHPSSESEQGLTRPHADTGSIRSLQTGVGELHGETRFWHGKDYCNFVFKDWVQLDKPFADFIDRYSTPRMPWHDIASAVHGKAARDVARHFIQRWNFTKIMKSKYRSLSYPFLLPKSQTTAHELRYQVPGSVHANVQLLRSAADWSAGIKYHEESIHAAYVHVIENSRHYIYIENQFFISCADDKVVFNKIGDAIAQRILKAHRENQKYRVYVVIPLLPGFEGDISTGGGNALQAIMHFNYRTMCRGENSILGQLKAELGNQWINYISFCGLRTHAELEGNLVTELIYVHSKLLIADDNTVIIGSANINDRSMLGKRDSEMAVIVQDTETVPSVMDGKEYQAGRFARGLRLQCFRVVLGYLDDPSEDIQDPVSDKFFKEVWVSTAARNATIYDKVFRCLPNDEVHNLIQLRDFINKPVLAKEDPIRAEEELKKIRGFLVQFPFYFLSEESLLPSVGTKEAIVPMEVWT
The assay is described as follows: In vivo Deuterated 1-Butanol PLD Assay. Here is the method:
Cells were seeded into 12-well tissue culture plates to reach 90% confluence at the time of assay. All cell types, aside from the HEK293-gfpPLD2 cells, were serum-starved 18 h prior to experiment in DMEM, 0.5% FBS, 1% AA. Cells werepretreated in the presence of test compound (50 μM to 5 nM) or DMSO (vehicle control) in DMEM for 5 min at rt. After pretreatment, media was removed, and cells were treated with DMEM + 1 μM PMA + 0.3% 1-butanol-d10, and either test compound, DMSO vehicle control, or DMEM alone for 30 min at 37 °C. HEK293-gfpPLD2 cells were treated in the presence of DMEM + 0.3% 1-butanol-d10 and either test compound or DMSO but were not stimulated with PMA. After treatment, samples were extracted, and 1,2-dihexanoyl-snglycero-3-phosphomethanol ([…]) was added as an internal standard. The lipids were isolated, the solvent was evaporated, and the resulting lipid film was resuspended in MS solvent (9:1 methanol/chloroform + 1 μL of NH4OH). Samples were

The IC50 is the concentration that gives 50% inhibition.

Compound `Oc1ccc(-c2sc3cc(O)ccc3c2-c2ccc(OCCN3CCCCC3)cc2)cc1` [Desketoraloxifene (10)] gave an IC50 of 6.1 µM.
